For one data set, the system named is DNA. Briefly: DNA binding by displacement of ethidium bromide from DNA. The settings on record: EtBr replacement assay; 192 at 0, 50, 100 μM. As for the experimental part: Candidate ligase inhibitors identified by CADD were assayed for their ability to inhibit hLigI and T4 DNA ligase using a high-throughput, fluorescence energy transfer-based DNA joining assay (22). Duplicate reactions (30 μL) containing 10 pmol of nicked DNA substrate and either 0.25 pmol of hLigI or 10 units of T4 DNA ligase were incubated in the presence or absence of 100 μmol/L of the putative inhibitor. DNA binding by the candidate DNA ligase inhibitors was measured by displacement of ethidium bromide from DNA as previously described (30).

In a further data set the test system is HeLa cell extract. Briefly: Cell extract assay of nonhomologous end-joining (1 kb cohesive-ended fragment). Particulars: 100 μmol/L (also 25 μM in the source), FIG. 4C. It is filed as biochemical, human. How it is done: Extracts were prepared from human cervical cancer HeLa cells as described previously (27, 31). For base excision repair (BER) assays, the extraction buffer contained 100 mmol/L of KCl, whereas for nonhomologous end-joining (NHEJ) assays, extraction buffer contained 400 mmol/L of KCl. Where indicated, DNA ligases were immunodepleted from the extracts as described (32) using protein A or G Sepharose beads (GE Healthcare) and anti-Lig1, anti-LigIII (GeneTex), or anti-LigIV (ABCAM) antibodies. Depletion was confirmed by immunoblotting.
To assay NHEJ (24), a 1 kb end-labeled BamHI fragment (0.1 pmol; (33)). and 20 μg of extract were incubated in ligation buffer (final volume, 20 μL), for 120 min at 25° C. either in the presence or absence of ligase inhibitors (100 μmol/L). DNA fragments were resolved by separation through a 0.8% agarose gel. Labeled DNA fragments were detected in the dried gel by phosphorImager analysis (Molecular Dynamics).
Linear DNA molecules with short complementary single strand overhangs are repaired by non-homologous end joining that is completed by DNA ligase IV (27). A HeLa extract was incubated with a labeled linear cohesive-ended 1 kb fragment with cohesive ends repair in the absence or presence of Compounds 67, 82 and 189 (25 μM).). Lane 7, DNA ligase I was immunodepleted from the extract prior to the assay. […], DNA ligase III was immunodepleted from the extract prior to the assay. […], DNA ligase IV was immunodepleted from the extract prior to the assay. After separation by native agarose gel electrophoresis, the linear DNA substrate, re-circularized substrate and dimers trimers etc of the 1 kb substrate were detected by phosphorimaging (27). […]

The subject of data set [1] is HCT116 cells. Briefly: Screen for potentiation of DNA damaging agents (MMS, camptothecin, cis-platinum, 3 aminobenzamide, ionizing radiation). Format: cell-based, human. The settings on record: for MMS: Ratios of IC50 HCT116: compound alone vs combination with MMS (100 μM); for MMS: Ratios of IC50 HCT116 / IC50 ratios of non- and 3-AB treated cells HCT116: 1 = no sensitization; for IC50 ratios of non- and 3-AB treated cells HCT116: compound alone vs combination with 3-AB (2 mM). From the text: The 192 human DNA ligase inhibitors were screened in parallel for effects on proliferation and the ability to potentiate the effects of several DNA damaging agents using two cell human lines, a colon cancer line HCT116 and a normal breast epithelial cell line MCF10A using a Biomek FX Laboratory Automation Workstation as described (23). The DNA damaging agents used, methyl methanesulfonate (MMS), camptothecin, cis-platinum, 3 aminobenzamide and ionizing radiation, are representatives of classes of agents used to treat cancer. Briefly, HCT116 and MCF10A cells were plated in 96 well plates such that the cultures were about 80% confluent after 5 days incubation. Compounds were added to the cultures at either 15 μM or 50 μM 1 day after plating. After incubation for 3 days, cell lysed in a solution containing 1.2% Igepal CA-630 and SYBR green that stains DNA (1:1000, Molecular Probes, Eugene, Oreg.). Subsequently, fluorescence was measured per well. The studies with DNA damaging agents were performed as follows. […] For ionizing radiation, cells were pre-incubated with the compounds at 50 μM for 1 hour prior to exposure to 2 gray of ionizing radiation. Cultures were incubated for 3 days and then treated as above.

For data set [2], the system named is HCT116 cells. Briefly: Colony forming (survival) assay. Format: cell-based, human. The settings on record: for potentiation of killing by ionizing radiation: HCT116, 2 gray. As for the experimental part: (§1) For survival assays, cells were plated in 6 well plates and grown either in the absence or presence of ligase inhibitors. Where indicated, either MMS (0-50 μM) was added to the medium or the cells were irradiated in a Cs-137 irradiator (0-2.5 Gy). After two weeks, colonies were stained with crystal violet (Sigma) and then counted.
(§2) To confirm that the DNA ligase inhibitors directly kill cells and potentiate cell killing by DNA damaging agents, we performed colony forming assays.
(§3) Different concentrations of Compound 184 were added to asynchronous subconfluent populations of HCT116, MCF7 and MCF10A cells. Colonies were counted after two weeks. (FIG. 6A).
(§4) Different concentrations of Compound 151 were added to asynchronous subconfluent populations of HCT116 and MCF10A cells in the absence or presence of MMS (50 μM). Colonies were counted after two weeks. (FIG. 6B).
(§5) Different concentrations of Compound 189 were added to asynchronous subconfluent populations of HCT116 and MCF10A cells. After 1 hour, cultures were irradiated with 2 gray of ionizing radiation. Colonies were counted after two weeks. (FIG. 6C).
(§6) Different concentrations of Compound 67 were added to asynchronous subconfluent populations of HCT116, MCF7 and MCF10A cells. After 1 hour, cultures were irradiated with 2 gray of ionizing radiation. Different concentrations of Compound 67 were added to asynchronous subconfluent populations of HCT116 and MCF10A cells in the absence or presence of MMS (50 μM). Colonies were counted after two weeks. (FIG. 6D).

Another data set relates to MCF10A cells. Briefly: Colony forming (survival) assay. The settings on record: colonies after two weeks; for effect on MMS cytotoxicity: MMS 50 μM. Format: cell-based, human. How it is done: as §1, §2, §3, §4, §5, §6
Data set [3] concerns HCT116 cells. Kind of data set: Screen for potentiation of DNA damaging agents (MMS, camptothecin, cis-platinum, 3 aminobenzamide, ionizing radiation). Format: cell-based, human. Particulars: with 2 Gy ionizing radiation, tick mark only.

Marks after values point to notes of the source that are not given here.

As for `O=c1[nH]ncc(N/N=C\c2ccc(O)c([N+](=O)[O-])c2)c1Cl` [Compound 82], the “DNA binding of compound (effect on DNA binding by ethidium bromide)” value (“DNA binding of compound” below) in the data set with DNA is “had no effect on DNA binding by ethidium bromide”. For the same compound, in the data set with HeLa cell extract, the “joining of linear DNA molecules (non-homologous end joining)” value (shortened to “joining … (non-homologous end joining)”) was “had no effect”.

For the compound `O=C(O)CSc1cc(Cl)c2nonc2c1[N+](=O)[O-]` [Compound 64], the “MMS: Ratios of IC50 HCT116” value with HCT116 cells [1] is reported as 2**.

Turning to `O=C(Cn1cnc([N+](=O)[O-])n1)N/N=C/c1ccc(O)cc1O` [Compound 151], the “MMS: Ratios of IC50 HCT116” value with HCT116 cells [1] came to 1.7. Moreover, the “Radiosensitizers: IC50 ratios HCT116” value with HCT116 cells [1] (ionizing radiation) was 2. Moreover, the “potentiation of killing by MMS” value in the data set with HCT116 cells [2] (HCT116, MMS 50 μM, colonies after two weeks) was “markedly potentiates”. For the same compound, in the data set on MCF10A cells, the “effect on MMS cytotoxicity” value is reported as “no significant effect”. Moreover, the “% growth inhibition HCT116 [2 Gy] 5-15 uM” value (“% growth inhibition HCT116” below) in the data set on HCT116 cells [3] is “✓”.

Take `Nc1nc(S)nc(O)c1/N=C/c1ccccc1` [Compound 189]: the “DNA binding of compound” value in the data set with DNA is “had no effect on DNA binding by ethidium bromide”. Besides, the “joining … (non-homologous end joining)” value in the data set with HeLa cell extract was “reduced joining of the linear DNA molecules”. Further, the “potentiation of killing by ionizing radiation” value in the data set on HCT116 cells [2] (colonies after two weeks) is “markedly potentiates”. The “effect on MMS cytotoxicity” value in the data set on MCF10A cells is “no significant effect”.

Regarding `Cc1c(Br)cc(NCC(=O)N/N=C\c2cc([N+](=O)[O-])ccc2O)cc1Br` [Compound 67], in the data set with HCT116 cells [1], the “IC50 ratios of non- and 3-AB treated cells HCT116” value came to 1; the “MMS: Ratios of IC50 HCT116” value was found to be 1.4. Moreover, the “DNA binding of compound” value with DNA is “had no effect on DNA binding by ethidium bromide”. Further, the “joining … (non-homologous end joining)” value in the data set on HeLa cell extract is given as “had no effect”. Besides, the “potentiation of killing by ionizing radiation” value in the data set with HCT116 cells [2] (colonies after two weeks) is reported as “potentiates”. Moreover, the “effect on ionizing radiation-induced cytotoxicity” value in the data set with MCF10A cells (2 gray) is reported as “no significant effect”. Further, the “effect on MMS cytotoxicity” value with MCF10A cells was “no significant effect”.

With `CS(=O)(=O)NNC(=O)C(=O)NNc1ccccc1` [Compound 184], the “cell killing (colony formation)” value in the data set with HCT116 cells [2] (HCT116, compound alone, compared with MCF10A, FIG. 6A) is “more effective at killing”; in the data set on MCF10A cells (compound alone, FIG. 6A), “kills”. For the same compound, the “% growth inhibition HCT116” value with HCT116 cells [3] is “✓”.

As to `O=C(c1ccc(O)cc1)c1ccccc1O` [Compound 200], in the data set with HCT116 cells [1], the “IC50 ratios of non- and 3-AB treated cells HCT116” value was “ID (1)”; the “MMS: Ratios of IC50 HCT116” value is recorded as “ID (1)”. In addition, the “% growth inhibition HCT116” value in the data set with HCT116 cells [3] is “✓”.

The values above are taken from patent publication US9757375B2, “Compounds that inhibit human DNA ligases and methods of treating cancer” (University of Maryland, Baltimore, priority 2007, dated 2017).
